Target: GFP (Aequorea victoria, UniProt P42212)
Settings: array of randomly generated peptides; GFP binding assay
Excerpt: Peptide aptamers also can be selected using a peptide array containing randomly generated peptides (e.g., 10,000 randomly generated peptides) that are 10 to 35 amino acids (e.g., 15 to 25 or 20 amino acids) in length. The peptide array can be screened using a binding assay with the protein target (e.g., GFP or thioredoxin). For example, when a fluorescent protein such as GFP is the target, GFP-binding peptides can be directly identified through a fluorescent scanner after a GFP binding assay.

Row | Sequence | binding to GFP on peptide array (strong fluorescence spots)
1 | CSGFRAMWLYRNWESQVEAT [SEQ ID NO:2] | bind specifically to the GFP
2 | CSGPYGTHFMYKSGGWRAIY [SEQ ID NO:4] | bind specifically to the GFP
3 | CSGWNHVIYEGTRYNWFRDS [SEQ ID NO:3] | bind specifically to the GFP
